Experimental data published in patent US11993598B2, “Compounds for inhibiting EGFR kinase, preparation methods and uses thereof” (WIGEN BIOMEDICINE TECHNOLOGY (SHANGHAI) CO., LTD., priority 2019, dated 2024).

Columns and labels:
HER4 = HER4 (Homo sapiens, UniProt Q15303); test: HER4 biochemical activity assay (HTRF)
Description: (§1) Assay 1: Wild-type EGFR, HER2 and HER4, and mutant EGFR biochemical activity assay
(§2) 10 nL of Serially diluted compounds were transferred to assay plates using the labcyte Echo 550, and 5 uL of 2× enzymes in assay buffer were subsequently dispensed. The assay plate was covered with an adhesive plate seal, and briefly spinned for 30 s at 1000 g. 5 uL of 2× TK-substrate-biotin and ATP mixed in assay buffer were added.
(§3) IC50 was calculated and analyzed using a 4 parametric logistic model.

H1975 = test: Cell line-derived xenograft (CDX) mouse model; format: in vivo, nude mice
Description: (§4) Assay 3. In vivo studies in cell line-derived (CDX) and patient derived xenografts (PDX) mouse models
(§5) Cells (H1975) or tissue pieces (LU0493 and LU0426) were implanted subcutaneously into the left armpit of nude mice. When the average tumor volume reached 100-150 mm^3, mice were randomized by tumor volume and treated with vehicle, compound 1 or poziotinib respectively. Tumor volume and body weight were measured twice per week. Mice were sacrificed on day 21 or day 28, and tumor volume and terminal body weight were recorded. The relative tumor volume, percent of treatment/control values and tumor growth inhibition were calculated and statistics was performed.
(§6) Terminal body weight changes were calculated as percentage of body changes from day 1 to day 21.

LU-01-0426 = test: Patient derived xenograft (PDX) mouse model; format: in vivo, nude mice
Description: as §4, §5, §6

LU-01-0493 = test: Patient derived xenograft (PDX) mouse model; format: in vivo, nude mice
Description: as §4, §5, §6

EGFR D770GY = EGFR D770GY (Homo sapiens, UniProt P00533, D770Y/INS769G); test: Mutant EGFR biochemical activity assay (HTRF)
EGFR D770GY, sequence (P00533 with tags, fused parts or gaps INS769G/D770Y limits assumed): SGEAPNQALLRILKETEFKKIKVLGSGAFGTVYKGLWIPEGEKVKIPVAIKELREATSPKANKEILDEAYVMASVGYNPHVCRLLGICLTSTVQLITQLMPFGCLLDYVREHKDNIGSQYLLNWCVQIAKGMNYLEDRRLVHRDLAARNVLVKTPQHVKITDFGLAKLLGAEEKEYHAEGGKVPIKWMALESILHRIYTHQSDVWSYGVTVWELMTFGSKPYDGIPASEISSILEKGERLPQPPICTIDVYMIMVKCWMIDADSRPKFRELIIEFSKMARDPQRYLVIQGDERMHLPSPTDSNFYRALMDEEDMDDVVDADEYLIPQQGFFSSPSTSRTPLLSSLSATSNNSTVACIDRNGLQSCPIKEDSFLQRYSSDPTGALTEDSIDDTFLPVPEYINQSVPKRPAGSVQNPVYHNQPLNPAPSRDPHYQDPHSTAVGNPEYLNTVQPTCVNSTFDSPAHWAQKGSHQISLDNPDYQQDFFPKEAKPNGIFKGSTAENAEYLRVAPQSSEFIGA
Description: as §1, §2, §3

EGFR L792F = EGFR L792F (Homo sapiens, UniProt P00533, L792F); test: Mutant EGFR biochemical activity assay (HTRF)
Description: as §1, §2, §3

EGFR T790M = EGFR T790M (Homo sapiens, UniProt P00533, T790M); test: Mutant EGFR biochemical activity assay (HTRF)
Description: as §1, §2, §3

EGFR A763_Y764insFHEA = EGFR A763_Y764insFHEA (Homo sapiens, UniProt P00533, INS763FHEA); test: Mutant EGFR biochemical activity assay (HTRF); conditions: read-out: IC50 (nM) EGFR A763_Y764 insFHEA
EGFR A763_Y764insFHEA, sequence (P00533 with tags, fused parts or gaps INS763FHEA limits assumed): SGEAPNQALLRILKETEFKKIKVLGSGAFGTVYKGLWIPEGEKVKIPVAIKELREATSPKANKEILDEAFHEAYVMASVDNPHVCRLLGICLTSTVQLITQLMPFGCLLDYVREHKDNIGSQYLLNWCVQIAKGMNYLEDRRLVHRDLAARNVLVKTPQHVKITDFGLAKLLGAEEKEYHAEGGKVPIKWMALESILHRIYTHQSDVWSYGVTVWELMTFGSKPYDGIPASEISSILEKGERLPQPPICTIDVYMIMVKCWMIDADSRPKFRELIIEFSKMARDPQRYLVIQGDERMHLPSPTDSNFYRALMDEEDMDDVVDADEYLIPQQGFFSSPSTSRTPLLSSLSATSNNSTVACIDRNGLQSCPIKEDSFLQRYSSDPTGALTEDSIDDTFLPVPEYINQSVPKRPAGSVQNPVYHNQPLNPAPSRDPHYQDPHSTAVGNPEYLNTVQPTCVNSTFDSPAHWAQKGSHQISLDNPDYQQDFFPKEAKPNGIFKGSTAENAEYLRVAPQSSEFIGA
Description: as §1, §2, §3

[1] = test system: H1975 (EGFR L858R/T790M, NSCLC); test: Cell proliferation assay (MTT); format: cell-based; conditions: Homo sapiens, NCI-H1975, 72 h, three days
Description: (§7) A431 cells, H1975 and Ba/F3 cells expressing various mutant EGFR were harvested from exponential phase cultures and seeded in 96-well plates at a cell density of 3000 per well for A431 and H1975, and 10000 per well for Ba/F3 cells. After overnight attachment, compounds were 3-fold serially diluted and applied to cells at 30 μM, 10 μM, 3 μM, 1 μM, 0.3 μM, […], 0.03 μM and 0.01 μM with triplicates, and incubated for three days. 20 μL of 5 mg/mL MTT was added afterwards followed by the further addition of 50 μL 10% SDS together with 5% isobutyl alcohol in 0.01 mol/L HCl. The plates were incubated overnight. Absorbance (A) at a wavelength of 570 nm was quantified. Percentage of inhibition was used for the calculation of IC50 based on the bliss method.

[2] = biological target: Ba/F3_EGFR D770_N771insSVD (Homo sapiens, UniProt P00533, DUP768-770, cells depend on it); test: Cell proliferation assay (MTT); format: cell-based; conditions: three days, read-out: Ba/F3_EGFR D770_N771insSVD IC50
Description: as §7

[3] = biological target: Ba/F3_EGFR V769_D770insASV (Homo sapiens, UniProt P00533, DUP767-769, cells depend on it); test: Cell proliferation assay (MTT); format: cell-based; conditions: three days, read-out: Ba/F3_EGFR V769_D770insASV IC50
Ba/F3_EGFR V769_D770insASV, sequence (P00533 with tags, fused parts or gaps DUP767-769): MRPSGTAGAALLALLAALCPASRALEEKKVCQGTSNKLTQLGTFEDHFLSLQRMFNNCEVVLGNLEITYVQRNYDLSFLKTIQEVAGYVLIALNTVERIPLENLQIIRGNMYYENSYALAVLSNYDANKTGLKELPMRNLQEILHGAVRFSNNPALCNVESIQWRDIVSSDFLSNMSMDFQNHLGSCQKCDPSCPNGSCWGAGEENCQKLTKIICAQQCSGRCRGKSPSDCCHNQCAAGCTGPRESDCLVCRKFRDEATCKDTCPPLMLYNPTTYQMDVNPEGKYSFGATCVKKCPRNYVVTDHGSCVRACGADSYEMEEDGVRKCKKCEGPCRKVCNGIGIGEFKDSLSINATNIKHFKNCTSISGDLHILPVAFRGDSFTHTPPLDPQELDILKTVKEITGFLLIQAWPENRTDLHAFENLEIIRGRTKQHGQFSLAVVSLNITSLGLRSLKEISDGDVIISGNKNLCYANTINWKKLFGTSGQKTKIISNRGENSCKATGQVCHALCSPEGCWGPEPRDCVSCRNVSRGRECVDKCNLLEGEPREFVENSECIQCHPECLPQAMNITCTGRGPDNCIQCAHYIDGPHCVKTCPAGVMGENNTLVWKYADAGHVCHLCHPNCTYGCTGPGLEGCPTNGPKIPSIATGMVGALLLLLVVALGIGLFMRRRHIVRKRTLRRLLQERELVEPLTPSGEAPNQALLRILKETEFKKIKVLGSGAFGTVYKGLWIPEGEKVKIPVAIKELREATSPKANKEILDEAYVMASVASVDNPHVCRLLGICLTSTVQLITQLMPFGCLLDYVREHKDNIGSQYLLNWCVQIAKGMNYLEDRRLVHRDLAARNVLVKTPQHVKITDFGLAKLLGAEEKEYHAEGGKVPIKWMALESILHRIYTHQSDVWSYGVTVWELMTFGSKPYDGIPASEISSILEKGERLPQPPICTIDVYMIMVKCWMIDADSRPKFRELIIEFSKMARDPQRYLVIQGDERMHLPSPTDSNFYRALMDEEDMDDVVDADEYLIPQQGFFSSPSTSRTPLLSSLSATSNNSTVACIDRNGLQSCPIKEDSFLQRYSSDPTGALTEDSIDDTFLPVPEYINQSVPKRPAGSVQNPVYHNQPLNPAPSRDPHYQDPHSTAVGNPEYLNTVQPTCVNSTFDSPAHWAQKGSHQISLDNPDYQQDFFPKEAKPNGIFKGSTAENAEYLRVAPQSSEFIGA
Description: as §7

[4] = test system: A431 (wild type EGFR, skin cancer); test: Cell proliferation assay (MTT); format: cell-based; conditions: Homo sapiens, A-431, 72 h, three days
Description: as §7

[5] = test system: PC9 cells expressing luciferase; test: In vivo orthotopic brain PC9 xenograft mouse model; conditions: oral
Description: Assay 4. In vivo orthotopic brain PC9 xenograft mouse model
3×10^5 PC9 cells expressing luciferase were injected to the mouse brain. Mice were randomized based on brain flurorescence intensity and body weight, and were orally administered vehicle or compound 1. Survival and body weights were monitored every day and mice with more than 20% body weight loss were sacrificed.

HER2 = HER2 (Homo sapiens, UniProt P04626); test: HER2 biochemical activity assay (HTRF)
HER2, sequence (P04626 23-1255): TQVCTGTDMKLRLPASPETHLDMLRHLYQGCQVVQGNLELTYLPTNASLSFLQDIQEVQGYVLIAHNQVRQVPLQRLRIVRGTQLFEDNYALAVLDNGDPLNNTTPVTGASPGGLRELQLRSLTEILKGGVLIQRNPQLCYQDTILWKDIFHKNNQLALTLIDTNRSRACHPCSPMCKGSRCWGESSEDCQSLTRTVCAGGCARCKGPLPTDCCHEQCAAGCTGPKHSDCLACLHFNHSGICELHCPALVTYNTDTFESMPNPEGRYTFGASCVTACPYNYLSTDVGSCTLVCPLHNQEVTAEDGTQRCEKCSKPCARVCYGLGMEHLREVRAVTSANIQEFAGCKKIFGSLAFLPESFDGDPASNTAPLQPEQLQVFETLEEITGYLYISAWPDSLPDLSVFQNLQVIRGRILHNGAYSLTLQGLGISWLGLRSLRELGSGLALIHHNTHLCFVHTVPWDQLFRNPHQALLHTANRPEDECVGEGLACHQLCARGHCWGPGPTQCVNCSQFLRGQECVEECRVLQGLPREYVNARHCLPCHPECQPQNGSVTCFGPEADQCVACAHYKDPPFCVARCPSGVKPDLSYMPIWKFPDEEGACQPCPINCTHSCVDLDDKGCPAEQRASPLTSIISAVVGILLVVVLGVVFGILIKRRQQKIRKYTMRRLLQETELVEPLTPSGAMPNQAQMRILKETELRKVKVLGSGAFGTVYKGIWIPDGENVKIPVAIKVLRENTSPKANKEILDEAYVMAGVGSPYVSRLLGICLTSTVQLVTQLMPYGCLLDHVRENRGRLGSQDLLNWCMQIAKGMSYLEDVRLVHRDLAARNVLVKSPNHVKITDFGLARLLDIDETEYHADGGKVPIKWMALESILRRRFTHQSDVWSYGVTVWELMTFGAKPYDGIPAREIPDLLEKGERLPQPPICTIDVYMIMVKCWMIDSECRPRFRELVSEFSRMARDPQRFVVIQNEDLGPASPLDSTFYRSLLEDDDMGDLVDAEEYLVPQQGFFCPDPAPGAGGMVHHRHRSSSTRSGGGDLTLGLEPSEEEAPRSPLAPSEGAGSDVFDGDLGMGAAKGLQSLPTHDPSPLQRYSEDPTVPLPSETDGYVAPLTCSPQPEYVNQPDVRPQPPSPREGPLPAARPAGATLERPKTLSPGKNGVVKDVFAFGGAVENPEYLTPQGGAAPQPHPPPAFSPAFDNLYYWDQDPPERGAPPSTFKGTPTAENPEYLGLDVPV
Description: as §1, §2, §3

[6] = test system: tumor growth with EGFR exon 20 insertions and T790M mutations; test: In vivo CDX and PDX mouse models, overall statement; design: species or system nude mice
Description: as §4, §5, §6

EGFR-WT = EGFR-WT (Homo sapiens, UniProt P00533); test: Wild-type EGFR biochemical activity assay (HTRF)
Description: as §1, §2, §3

LU-0387 = test: Xenograft mouse model LU-0387; format: in vivo, nude mice

HER4, sequence (Q15303 26-1308): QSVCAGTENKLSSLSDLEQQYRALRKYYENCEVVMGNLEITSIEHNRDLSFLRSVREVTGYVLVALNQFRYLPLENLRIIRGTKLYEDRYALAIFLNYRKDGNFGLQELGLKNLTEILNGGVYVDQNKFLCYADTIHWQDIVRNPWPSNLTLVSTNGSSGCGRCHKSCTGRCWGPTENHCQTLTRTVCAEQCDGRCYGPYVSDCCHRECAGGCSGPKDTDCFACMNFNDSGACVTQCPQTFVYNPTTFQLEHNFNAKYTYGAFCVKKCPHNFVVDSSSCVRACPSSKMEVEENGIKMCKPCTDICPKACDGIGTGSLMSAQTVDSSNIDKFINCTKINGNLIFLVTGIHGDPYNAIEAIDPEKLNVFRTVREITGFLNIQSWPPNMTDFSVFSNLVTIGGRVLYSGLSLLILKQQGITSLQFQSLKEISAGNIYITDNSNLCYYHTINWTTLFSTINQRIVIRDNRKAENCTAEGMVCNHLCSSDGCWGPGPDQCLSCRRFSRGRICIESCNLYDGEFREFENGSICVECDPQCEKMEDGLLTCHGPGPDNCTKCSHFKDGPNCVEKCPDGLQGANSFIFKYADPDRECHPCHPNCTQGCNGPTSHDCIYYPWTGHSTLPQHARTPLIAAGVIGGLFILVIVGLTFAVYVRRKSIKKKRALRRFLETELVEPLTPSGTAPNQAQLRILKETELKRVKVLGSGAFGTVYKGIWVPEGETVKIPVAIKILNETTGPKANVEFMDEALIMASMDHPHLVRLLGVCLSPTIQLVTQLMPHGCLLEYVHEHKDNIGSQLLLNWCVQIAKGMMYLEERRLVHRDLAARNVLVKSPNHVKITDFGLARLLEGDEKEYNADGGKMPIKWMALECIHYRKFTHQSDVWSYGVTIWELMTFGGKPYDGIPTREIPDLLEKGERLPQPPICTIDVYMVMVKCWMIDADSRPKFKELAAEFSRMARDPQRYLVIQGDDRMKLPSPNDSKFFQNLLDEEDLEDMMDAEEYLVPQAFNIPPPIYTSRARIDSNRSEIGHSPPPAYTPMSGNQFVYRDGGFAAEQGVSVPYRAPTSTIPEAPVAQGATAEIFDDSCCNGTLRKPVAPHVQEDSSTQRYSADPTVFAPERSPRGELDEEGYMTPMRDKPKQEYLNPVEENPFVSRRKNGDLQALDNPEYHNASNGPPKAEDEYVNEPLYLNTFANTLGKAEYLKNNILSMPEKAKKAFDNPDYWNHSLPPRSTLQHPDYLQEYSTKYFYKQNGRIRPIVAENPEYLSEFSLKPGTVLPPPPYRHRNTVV

C=CC(=O)Nc1cc(Nc2nccc(-n3c(=O)n4c5c(cc(F)cc53)CCC4)n2)c(OC)cc1N(C)CCN(C)C [Compound 1, N-(2-((2-(dimethylamino)ethyl)(methyl)amino)-5-((4-(8-fluoro-2-oxo-5,6-dihydro-4H-imidazo[4,5,1-ij]quinolin-1(2H)-yl)pyrimidin-2-yl)amino)-4-methoxyphenyl)acrylamide]
IC50 (HER4): 0.769 nM
TGI (%) (H1975; H1975, 15 mg/kg compound 1): 98%
Terminal body weight changes (%) (H1975; H1975, 15 mg/kg compound 1, day 1 to day 21): 3.9%
TGI (%) (H1975; H1975, 30 mg/kg compound 1): 106%
Terminal body weight changes (%) (H1975; H1975, 30 mg/kg compound 1, day 1 to day 21): 5.1%
TGI (%) (H1975; H1975, 60 mg/kg compound 1): 108%
Terminal body weight changes (%) (H1975; H1975, 60 mg/kg compound 1, day 1 to day 21): −4.1%
TGI (%) (LU-01-0426; LU-01-0426, 15 mg/kg compound 1): 47%
Terminal body weight changes (%) (LU-01-0426; LU-01-0426, 15 mg/kg compound 1, day 1 to day 21): 5.7%
TGI (%) (LU-01-0426; LU-01-0426, 30 mg/kg compound 1): 84%
Terminal body weight changes (%) (LU-01-0426; LU-01-0426, 30 mg/kg compound 1, day 1 to day 21): 1.8%
TGI (%) (LU-01-0426; LU-01-0426, 60 mg/kg compound 1): 106.3%
Terminal body weight changes (%) (LU-01-0426; LU-01-0426, 60 mg/kg compound 1, day 1 to day 21): −2%
TGI (%) (LU-01-0493; LU-01-0493, 15 mg/kg compound 1): 55.4%
Terminal body weight changes (%) (LU-01-0493; LU-01-0493, 15 mg/kg compound 1, day 1 to day 21): 3.2%
TGI (%) (LU-01-0493; LU-01-0493, 30 mg/kg compound 1): 72.3%
Terminal body weight changes (%) (LU-01-0493; LU-01-0493, 30 mg/kg compound 1, day 1 to day 21): −6.1%
TGI (%) (LU-01-0493; LU-01-0493, 60 mg/kg compound 1): 88.9%
Terminal body weight changes (%) (LU-01-0493; LU-01-0493, 60 mg/kg compound 1, day 1 to day 21): −6.5%
IC50 (EGFR D770GY): 0.0649 nM
IC50 (EGFR L792F): 1.26 nM
IC50 (EGFR T790M): 0.0526 nM
IC50 (EGFR A763_Y764insFHEA): 0.264 nM
IC50 [1]: 52.9 nM
GI50 [2]: 7.06 nM
GI50 [3]: 20.2 nM
IC50 [4]: 157 nM
Mice Survival Rate (%) ([5]; 30 mg/kg QD, Day 16): 100%
Mice Survival Rate (%) ([5]; 30 mg/kg QD, Day 17): 100%
Mice Survival Rate (%) ([5]; 30 mg/kg QD, Day 18): 100%
Mice Survival Rate (%) ([5]; 30 mg/kg QD, Day 22): 100%
Mice Survival Rate (%) ([5]; 30 mg/kg QD, Day 24): 100%
Mice Survival Rate (%) ([5]; 30 mg/kg QD, Day 26): 100%
Mice Survival Rate (%) ([5]; 30 mg/kg QD, Day 28): 100%
Mice Survival Rate (%) ([5]; 60 mg/kg BID, Day 16): 100%
Mice Survival Rate (%) ([5]; 60 mg/kg BID, Day 17): 100%
Mice Survival Rate (%) ([5]; 60 mg/kg BID, Day 18): 100%
Mice Survival Rate (%) ([5]; 60 mg/kg BID, Day 22): 100%
Mice Survival Rate (%) ([5]; 60 mg/kg BID, Day 24): 100%
Mice Survival Rate (%) ([5]; 60 mg/kg BID, Day 26): 100%
Mice Survival Rate (%) ([5]; 60 mg/kg BID, Day 28): 100%
Mice Survival Rate (%) ([5]; 60 mg/kg QD, Day 16): 100%
Mice Survival Rate (%) ([5]; 60 mg/kg QD, Day 17): 100%
Mice Survival Rate (%) ([5]; 60 mg/kg QD, Day 18): 100%
Mice Survival Rate (%) ([5]; 60 mg/kg QD, Day 22): 100%
Mice Survival Rate (%) ([5]; 60 mg/kg QD, Day 24): 100%
Mice Survival Rate (%) ([5]; 60 mg/kg QD, Day 26): 100%
Mice Survival Rate (%) ([5]; 60 mg/kg QD, Day 28): 100%
IC50 (HER2): 35.1 nM
impact on body weight compared to poziotinib, in words [6]: less impacts on body weight
IC50 (EGFR-WT): 1.56 nM
TGI (%) (LU-0387; LU-0387, 30 mg/kg compound 1): 42%
Terminal body weight changes (%) (LU-0387; LU-0387, 30 mg/kg compound 1, day 1 to day 21): −7.75%
TGI (%) (LU-0387; LU-0387, 60 mg/kg compound 1): 95%
Terminal body weight changes (%) (LU-0387; LU-0387, 60 mg/kg compound 1, day 1 to day 21): 1.26%
